Read-outs that look alike come from different tables or passages of the source.
Legend:
CcSHMT1 [1] = target: T1, CcSHMT1 (Erigeron canadensis, UniProt A0A8M0FGR5, A187T); assay: microscale thermophoresis (MST); format: binding
T1 construct: total CDS (1539 bp); homology model is a tetramer
T1 sequence (A0A8M0FGR5 1-513 A187T): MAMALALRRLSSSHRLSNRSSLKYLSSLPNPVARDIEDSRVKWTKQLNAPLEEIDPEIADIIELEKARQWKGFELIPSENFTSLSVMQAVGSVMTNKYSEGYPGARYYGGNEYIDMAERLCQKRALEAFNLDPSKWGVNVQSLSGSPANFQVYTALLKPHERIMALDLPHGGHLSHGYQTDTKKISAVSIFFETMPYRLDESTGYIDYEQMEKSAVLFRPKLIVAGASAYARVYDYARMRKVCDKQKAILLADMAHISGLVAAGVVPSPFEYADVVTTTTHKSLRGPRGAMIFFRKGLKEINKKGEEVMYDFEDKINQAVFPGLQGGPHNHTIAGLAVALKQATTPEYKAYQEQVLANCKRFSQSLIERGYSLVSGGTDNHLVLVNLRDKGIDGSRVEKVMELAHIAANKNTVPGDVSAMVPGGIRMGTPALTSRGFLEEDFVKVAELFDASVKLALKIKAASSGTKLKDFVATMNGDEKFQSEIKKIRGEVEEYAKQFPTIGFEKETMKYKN

CcSHMT1 [2] = target: T2, CcSHMT1 (Erigeron canadensis, UniProt A0A8M0FGR5); assay: SHMT activity by benzaldehyde production from DL-β-phenylserine; format: biochemical; conditions: competitive versus DL-β-phenylserine; CAP 0.63-44.23 μM, assayed 0.5 h after CAP addition
T2 construct: total CDS (1539 bp); homology model is a tetramer
T2 sequence (A0A8M0FGR5 1-513): T1 sequence (A0A8M0FGR5 1-513 A187T)

CcSHMT1 [3] = target: T3, CcSHMT1 (Erigeron canadensis, UniProt A0A8M0FGR5, V188L); assay: microscale thermophoresis (MST); format: binding
T3 construct: total CDS (1539 bp)
T3 sequence (A0A8M0FGR5 1-513 V188L): T1 sequence (A0A8M0FGR5 1-513 A187T)

CcSHMT1 [4] = target: T4, CcSHMT1 (Erigeron canadensis, UniProt A0A8M0FGR5, S186A); assay: microscale thermophoresis (MST); format: binding
T4 construct: total CDS (1539 bp)
T4 sequence (A0A8M0FGR5 1-513 S186A): T1 sequence (A0A8M0FGR5 1-513 A187T)

CcSHMT1 [5] = target: T2, CcSHMT1; assay: microscale thermophoresis (MST); format: binding

Structure (SMILES) | Kd (CcSHMT1 [1]) [µM] | IC50 (CcSHMT1 [2]) [µM] | Kd (CcSHMT1 [3]) [µM] | Kd (CcSHMT1 [4]) [µM] | Kd (CcSHMT1 [5]; read-out: Kd) [µM] | Kd (CcSHMT1 [5]; negative control, bound is the highest concentration tested, not a printed Kd, read-out: no binding up to 50 μM) [µM]
CCCCCCCC(=O)O [Caprylic acid] | 51.9 | 23.1 | 28 | 15.5 | 12.3 | –
COc1cc(C(=O)O)ccc1O [Vanillic acid, reference compound] | – | – | – | – | – | > 50

Source: paper doi:10.1101/2023.12.12.571245v1, “Serine hydroxymethyl transferase is a binding target of caprylic acid: Uncovering a novel molecular target for a herbicide and for producing caprylic acid-tolerant crops” (biorxiv, 2023)
